Assays:
HIV Gag = test: Western blot for HIV Gag in JLAT10.6 cells; format: cell-based; details: 24 h
HIV-1 LTR = test: ChIP assay of acetylated histone H3 at the HIV-1 LTR; format: cell-based; details: JLAT10.6 cells, 6 hours, HIV-1 LTR qPCR
Method: Since histone H3 is […] by Class I HDACs and known to bind to the HIV LTR promoter, we determined H3 acetylation status of the HIV-1 LTR in JLAT10.6 cells. […] The ChIP assay was performed using a ChIP kit (ab500) (Abcam; Cambridge, Mass.). Briefly, an anti-rabbit IgG (Cell Signaling Technologies; Danvers, Mass.) was used as an isotype control. Actin was used as an internal control. Total chromatin (input) and the immunoprecipitated chromatin were used as templates and HIV-1 LTR was amplified by quantitative PCR using HIV-1 LTR (forward: 5-[…] […]-3, reverse: 5-TAG […] A-3) and actin primers. Using ChIP, we recovered 15% of the DNA from SDL148-treated cells using anti-acetylated histone H3 antibody compared to less than 5% recovery with DMSO-treated cells, and less than 1% from the IgG-negative controls. […] An alternative mechanism is modulation of lysines in Tat that impact its ability to interact with TAR of the HIV-1 LTR (37-39).

JLAT10.6 cells = test: HIV-1 latency reactivation screen in JLAT10.6 cells (GFP by FACS); format: cell-based
Method: For screening purposes, JLAT10.6 cells, a T-cell line that has been widely used for HIV-1 reactivation studies (32-34) were utilized. In this cell line, HIV-1Δenv from the NL4-3 backbone with GFP replacing the Nef gene is stably integrated into the genome and is expressed at undetectable levels. Upon HIV reactivation with latency reversing agents (LRAs), viral production leads to expression of GFP that was measured by fluorescent activation cell sorting (FACS) analysis using a Becton Dickinson FACS machine. Analysis was performed using BD […] PRO software (BD Biosciences; Franklin Lakes, N.J.). The stronger the HIV reactivation, the higher the percentage of GFP-positive cells observed. JLAT10.6 cells were incubated with HDAC inhibitors at concentrations of 1 and 10 μM for 24 hours, using TNF-α and SAHA (Vorinostat) as positive controls.

HDAC3 = HDAC3 (Homo sapiens, UniProt O15379); details: cited from earlier work
[1] = mice; cited from earlier work
Class I HDAC = test: Western blot for acetylated histone H3 as a measure of Class I HDAC inhibition; format: cell-based; details: Jurkat cells and primary resting CD4+ T-cells, 8 hours
Class II HDAC = test: Western blot for acetylated tubulin as a measure of Class II HDAC inhibition; format: cell-based; details: Jurkat cells and primary resting CD4+ T-cells, 8 hours

Sequence of HDAC3 (O15379 whole entry): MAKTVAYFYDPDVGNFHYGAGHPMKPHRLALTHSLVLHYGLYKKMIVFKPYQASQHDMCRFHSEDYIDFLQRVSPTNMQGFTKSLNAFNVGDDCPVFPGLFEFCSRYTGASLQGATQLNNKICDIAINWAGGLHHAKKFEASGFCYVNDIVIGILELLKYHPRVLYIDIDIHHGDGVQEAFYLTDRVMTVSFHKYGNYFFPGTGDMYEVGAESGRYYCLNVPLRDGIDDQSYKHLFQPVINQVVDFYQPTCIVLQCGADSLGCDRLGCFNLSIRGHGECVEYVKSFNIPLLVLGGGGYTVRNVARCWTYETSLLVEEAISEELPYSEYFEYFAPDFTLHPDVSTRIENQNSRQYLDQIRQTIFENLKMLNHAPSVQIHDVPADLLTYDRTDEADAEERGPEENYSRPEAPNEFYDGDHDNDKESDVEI
Sequence of HDAC3 (Q9Y618 395-489 partner limits assumed): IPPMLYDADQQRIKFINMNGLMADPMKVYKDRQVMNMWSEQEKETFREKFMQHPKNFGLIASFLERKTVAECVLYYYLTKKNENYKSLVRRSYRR

| Compound | expression of HIV Gag (HIV Gag) | DNA recovered using anti-acetylated histone H3 antibody (HIV-1 LTR) [%] | reactivation of HIV expression at 100 nM (JLAT10.6 cells; 100 nM) | potency in reactivating HIV from latency compared with vorinostat (JLAT10.6 cells; 1 and 10 μM, 24 hours) | EC50 (JLAT10.6 cells; read-out: EC50 to reactivate HIV from latency) [nM] | potency against HDAC3 (HDAC3) | bioavailability [1] | histone H3 acetylation (Class I HDAC) | acetylation of tubulin (Class II HDAC) |
| --- | --- | --- | --- | --- | --- | --- | --- | --- | --- |
| largazole [SDL148] | enhanced expression of HIV Gag | 15 | the only compound able to reactivate HIV expression significantly | comparable or more potent than vorinostat | 150 | picomolar range | excellent bioavailability | – | – |
| O=C(CCCCCCC(=O)Nc1ccccc1)NO [SAHA, suberoylanilide hydroxamic acid] | – | – | – | – | – | – | – | enhanced the acetylation of both histone H3 and tubulin | enhanced the acetylation of both histone H3 and tubulin |

— patent US20190290621A1, “COMPOSITIONS AND METHODS FOR TREATING HIV-1 LATENCY” (priority 2017, published 2019)
